Experimental findings from patent publication US12576075B2, “Combination therapies for treating cancer” (Institute For Cancer Research, priority 2018, dated 2026) are described below.

Assay [1] deals with 786-O cells. Nature of the assay: Dose-dependent anti-proliferative effects on 786-O cells (dose response). To be noted: for ED75 / ED90: single drug dose response; for EC50: Homo sapiens, 786-0, single drug dose response, read-out: ED50 (the source's name). The format is cell-based, human.
For assay [2], the system named is 786-O cells. Nature of the assay: Lysosomal sequestration of sunitinib by fluorescent microscopy. The class given is cell-based, human. Set-up: Sequestration of sunitinib within lysosomes: dose or concentration left out as unconfirmed.
The test system of another assay is PNX0010 RCC cells. The experiment in a line: Cell viability, […]-BLUE assay, PNX0010. Set-up: dose or concentration left out as unconfirmed. Conditions: 72 hours. The class given is cell-based, human. As for the experimental part: (§1) Treatment with lonafarnib can reinstate sensitivity of RCC cells to TKIs. Pharmacological inhibition of FTase enhances the antitumor activity of sunitinib. Referring to FIG. 3, in Panel A, PNX0010 and 786-O RCC cells were treated with various combinations of lonafarnib ([…]), sunitinib ([…]), and pazopanib ([…]) for 72 hours. Cell viability was examined using Blue […]-BLUE® assay (PROMEGA®). In Panel B, 786-O and PNX0010 RCC cells were treated with lonafarnib ([…]) and/or sunitinib ([…]) for 24 hours. DNA fragmentation was examined by the APO-BRDU kit (The Phoenix Flow Systems) followed by flow cytometry analysis.

The test system of a further assay is PNXC0010 RCC tumors. The format is in vivo. To be noted: PNX0010 subcutaneous xenografts, C.B17/lcrscid mice, 40 mg/kg each drug, orally 3 times/week. As for the experimental part:
PNX0010 subcutaneous xenografts were established in 6 week old male C.B17/lcrscid mice. The mice were treated orally 3 times/week with (i) 10% 2-hydroxypropyl-b-cyclodextrin in PBS (control); (ii) sunitinib (40 mg/kg); (iii) lonafarnib (40 mg/kg); or with sunitinib and lonafarnib combined (n=5 mice/group). Tumor volumes were calculated by the formula: (volume=0.52×(width)2×length).

The next assay relates to 786-O RCC cells. Nature of the assay: Cell viability, […]-BLUE assay, 786-O. The class given is cell-based, human. Set-up: dose or concentration left out as unconfirmed. To be noted: 72 hours. As for the experimental part: as §1

In the assay with 786-O cells [1], `CNC(=O)c1ccccc1Sc1ccc2c(/C=C/c3ccccn3)n[nH]c2c1` [Axitinib, axitinib] came in with an ED75 of 7.5 µM and an ED90 of 65.1 µM.

In the case of `CCN(CC)CCNC(=O)c1c(C)[nH]c(/C=C2\C(=O)Nc3ccc(F)cc32)c1C` [Sunitinib, sunitinib], in the assay with 786-O cells [1], the EC50 came to 2.4 µM, the ED75 worked out at 6.7 µM and the ED90 is 44.3 µM.

Take `NC(=O)N1CCC(CC(=O)N2CCC([C@H]3c4ncc(Br)cc4CCc4cc(Cl)cc(Br)c43)CC2)CC1` [Lonafarnib, lonafarnib]: the “Sequestration of sunitinib within lysosomes” value with 786-O cells [2] (60 minutes) is recorded as “significantly reduced”. Further, the “Total cellular accumulation of sunitinib” value in the assay on 786-O cells [2] (effect of lonafarnib, data not shown) is recorded as “not affected”. In the assay on PNX0010 RCC cells, the “Effect on cell viability” value was “modest effect”. For the same compound, the “Growth of xenograft tumors (tumor volume)” value in the assay on PNXC0010 RCC tumors is recorded as “moderate decrease”. In addition, the “Effect on cell viability” value in the assay with 786-O RCC cells was “modest effect”. Moreover, in the assay with 786-O cells [1], the EC50 turned out to be 3.8 µM, the ED75 was 63.3 µM and the ED90 was determined as 5672.0 µM.
